Molecular target: T1, human M2 acetylcholine receptor (M2AChR) (Homo sapiens, UniProt P08172)
T1 construct: expressed in transfected cells; host or cells: CHO K1 (Chinese hamster ovary) cells constitutively expressing mitochondrially targeted aequorin and stably transfected with Galpha16
T1 sequence (P08172 1-466): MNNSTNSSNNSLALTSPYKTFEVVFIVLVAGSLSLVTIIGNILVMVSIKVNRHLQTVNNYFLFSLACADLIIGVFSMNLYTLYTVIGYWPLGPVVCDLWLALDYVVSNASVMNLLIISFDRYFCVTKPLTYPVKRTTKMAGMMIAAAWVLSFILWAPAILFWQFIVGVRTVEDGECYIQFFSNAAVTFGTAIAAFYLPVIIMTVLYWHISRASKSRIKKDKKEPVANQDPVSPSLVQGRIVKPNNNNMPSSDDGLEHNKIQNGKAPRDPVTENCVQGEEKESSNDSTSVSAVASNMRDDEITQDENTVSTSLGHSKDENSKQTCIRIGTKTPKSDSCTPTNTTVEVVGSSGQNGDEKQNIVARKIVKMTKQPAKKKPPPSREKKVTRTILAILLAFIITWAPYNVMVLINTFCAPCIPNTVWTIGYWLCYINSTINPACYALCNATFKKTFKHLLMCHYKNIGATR
Experiment: Cellular functional in vitro test (aequorin luminescence in recombinant CHO K1 cells)
Assay type: cell-based
Conditions: agonist activity; CHO K1 cells expressing human M2AChR, aequorin and Gα16; luminescence readout
Text: A recombinant cell line was used to identify agonists of the human M2 acetylcholine receptor (M2A ChR) and to quantify the activity of the substances described herein. The cell is originally derived from a hamster ovary epithelial cell (Chinese Hamster Ovary, CHO K1, ATCC: American Type Culture Collection, Manassas, Va. 20108, USA). The test cell line constitutively expresses a modified form of the calcium-sensitive photoprotein aequorin which after reconstitution with the cofactor coelenterazine emits light when the free calcium concentration in the inner mitochondrial compartment is increased (Rizzuto R. Simpson A W, Brini M, Pozzan T.; Nature 358 (1992) 325-327). The cell is additionally stably transfected with the human M2AChR (Peralta E G, Ashkenazi A, Winslow J W, Smith D H, Ramachandran J, Capon, D J, EMBO Journal 6 (1987) 3923-3929) and with the gene which codes for the promiscuous Gα16 protein (Amatruda T T, Steele D A, Slepak V Z, Simon M I, Proceedings in the National Academy of Science USA 88 (1991), 5587-5591). The resulting M2AChR test cell responds to stimulation of the recombinant M2ACh receptor with an intracellular release of calcium ions, which can be quantified through the resulting aequorin luminescence with a suitable luminometer (Milligan G, Marshall F, Rees S, Trends in Pharmacological Sciences 17 (1996) 235-237).
Test procedure: The cells are plated out on the day before the test in culture medium (DMEM, 10% FCS, 2 mM glutamine, 10 mM HEPES; Gibco Cat.#21331-020; now belongs to: Invitrogen GmbH, 76131 Karlsruhe) in 384 (or 1536) well microtiter plates and kept in a cell incubator (96% humidity, 5% v/v CO2, 37° C.). On the day of the test, the culture medium is replaced by a Tyrode solution (in mM: 140 NaCl, 5 KCl, 1 MgCl2, 2 CaCl2, 20 glucose, 20 HEPES) which additionally contains the cofactor coelenterazine (50 μM), and the microtiter plate is then incubated for a further 3-4 hours. Immediately after the test substances have been transferred into the wells of the microtiter plate, the resulting light signal is measured in the luminometer.

Compound | EC50 [nM]
4-N-[(1-S-Methyl-(2-methylbutyl)glycyl]-1-cyclopropyl-2-oxo-N-[1-S-(4-pyridinyl)-ethyl]-1,2,3,4-tetrahydro-6-quinoxalinecarboxamide [Example 25] | 6
4-N-[(1-S-Methyl-(2-methylbutyl)glycyl]-1-cyclopropyl-2-oxo-N-[(3-pyridinyl-4-methoxy)ethyl]-1,2,3,4-tetrahydro-6-quinoxalinecarboxamide [Example 26] | 16
CC(NC(=O)c1ccc2c(c1)N(C(=O)CNC1CCCCC1)CC(=O)N2C1CC1)c1ccncc1 (single isomer, unassigned; (+)) [Example 7, (+)-4-(N-Cyclohexylglycyl)-1-cyclopropyl-2-oxo-N-[1-(4-pyridinyl)ethyl]-1,2,3,4-tetrahydro-6-quinoxalinecarboxamide] | 5
CC(NC(=O)c1ccc2c(c1)N(C(=O)CNC1CCC1)CC(=O)N2C1CC1)c1cccnc1 (stereo not shown) [Example 2, 4-(N-Cyclobutylglycyl)-1-cyclopropyl-2-oxo-N-[1-(3-pyridinyl)ethyl]-1,2,3,4-tetra-hydro-6-quinoxalinecarboxamide] | 1000
CC(NC(=O)c1ccc2c(c1)N(C(=O)CNC1CCCCC1)CC(=O)N2C1CC1)c1cccnc1 (stereo not shown) [Example 5, 4-(N-Cyclohexylglycyl)-1-cyclopropyl-2-oxo-N-[1-(3-pyridinyl)ethyl]-1,2,3,4-tetrahydro-6-quinoxalinecarboxamide] | 37
CC1CCCC(NCC(=O)N2CC(=O)N(C3CC3)c3ccc(C(=O)NC(C)c4cccnc4)cc32)C1 (stereo not shown) [Example 11, 1-Cyclopropyl-4-[N-(3-methylcyclohexyl)glycyl]-2-oxo-N-[1-(3-pyridinyl)ethyl]-1,2,3,4-tetrahydro-6-quinoxalinecarboxamide] | 320
O=C(NCc1ccsc1)c1ccc2c(c1)N(C(=O)CNC1CCCCC1)CC(=O)N2C1CC1 [Example 12, 4-(N-Cyclohexylglycyl)-1-cyclopropyl-2-oxo-N-(3-thienylmethyl)-1,2,3,4-tetrahydro-6-quinoxalinecarboxamide] | 1800
C[C@H](NC(=O)c1ccc2c(c1)N(C(=O)CN[C@H]1CC[C@H](O)CC1)CC(=O)N2C1CC1)c1ccncc1 [Example 22, 4-N-[(trans-4-Cyclohexanoyl)glycyl]-1-cyclopropyl-2-oxo-N-[1-S-(4-pyridinyl)-ethyl]-1,2,3,4-tetrahydro-6-quinoxalinecarboxamide] | 150
C[C@H](NC(=O)c1ccc2c(c1)N(C(=O)CNCC(C)(C)C)CC(=O)N2C1CC1)c1ccncc1 [Example 23] | 18
C[C@H](NC(=O)c1ccc2c(c1)N(C(=O)CN[C@@H](C)C(C)(C)C)CC(=O)N2C1CC1)c1ccncc1 [Example 24] | 32
